We go through seven molecules from ChEMBL document CHEMBL1201862, “PubChem BioAssay data set” (2004).

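Compound exposure: 48 hours, 5 concentrations, 96-well plates. At the GI50, growth is halved.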 Calls of active or inactive are those of the source. Rule as the data show it: active = GI50 up to about 1.1 µM and inactive = higher.

Test systems include BT-549; SNB-75; PC-3; U-251; SF-295; CAKI-1; Hs-578T; EKVX; SNB-19; MDA-N; HOP-92; CCRF-CEM; HCT-116; 786-0; OVCAR-3; A549; SR; COLO 205; A498; SK-MEL-28.
Common to all, as to assay: NCI tumour cell line growth inhibition, 48 h

For the molecule `CCCCCC(=O)OCC(=O)[C@H]1[C@H](C)C[C@H]2[C@@H]3C[C@H](F)C4=C/C(=N/OC(=O)c5cccc6c(=O)c7ccccc7[nH]c56)C=C[C@]4(C)[C@H]3[C@@H](O)C[C@@]21C`, the GI50 with BT-549 is 16.5 µM (inactive); with SNB-75 it was 19.1 µM (inactive); in the assay on PC-3 it was 20.3 µM (inactive); with U-251, 45.9 µM (inactive); in the assay on SF-295 it was 47.8 µM (inactive); with CAKI-1, 41.8 µM (inactive). For the same molecule, the GI50 with Hs-578T is 31.7 µM (inactive); in the assay on EKVX, 25.5 µM (inactive); in the assay on SNB-19, 37.3 µM (inactive); in the assay on MDA-N, 28.3 µM (inactive); with HOP-92, 73.1 µM (inactive); with CCRF-CEM, 89.7 µM (inactive). Moreover, the GI50 is 26.4 µM (inactive) in the assay with HCT-116; 48.3 µM (inactive) in the assay with 786-0; 18.9 µM (inactive) in the assay with OVCAR-3; 20.6 µM (inactive) in the assay on A549; 21.5 µM (inactive) with SR; 24.3 µM (inactive) in the assay with COLO 205.
For `CC(=O)O[C@H]1CC[C@@]2(C)[C@@H](CC[C@@H]3[C@@H]2CC(=O)[C@@]2(C)[C@H]3C[C@@H]3CC(C)=CC(=O)[C@@H]32)C1`, the GI50 in the assay with A498 was > 100 µM (inactive); with BT-549, 28.3 µM (inactive); in the assay with SNB-75 it was 30.1 µM (inactive); with PC-3, 44.1 µM (inactive); with U-251 it was > 100 µM (inactive); with SF-295, 56.1 µM (inactive). Moreover, the GI50 in the assay with CAKI-1 is > 100 µM (inactive); with Hs-578T, 20.7 µM (inactive); in the assay with EKVX, 28.9 µM (inactive); in the assay on SNB-19, > 100 µM (inactive); with MDA-N, 43.1 µM (inactive); in the assay with CCRF-CEM, 36.1 µM (inactive). Further, the GI50 in the assay on SK-MEL-28 was > 100 µM (inactive); with HCT-116, 49.5 µM (inactive); in the assay with 786-0 it was 39.5 µM (inactive); in the assay with OVCAR-3, 81.8 µM (inactive); in the assay on A549, 62.4 µM (inactive); with SR it was 23.5 µM (inactive). Also, the GI50 in the assay with COLO 205 was 58.5 µM (inactive).
As to `Cc1nc2c(=O)n(C)ncc2[nH]1`, the GI50 was > 100 µM (inactive) in the assay on A498; > 100 µM (inactive) in the assay with BT-549; 22.6 µM (inactive) in the assay with SNB-75; > 100 µM (inactive) in the assay with PC-3; > 100 µM (inactive) in the assay with U-251; > 100 µM (inactive) in the assay on SF-295. Besides, the GI50 in the assay on CAKI-1 is > 100 µM (inactive); in the assay on Hs-578T, 77.1 µM (inactive); with EKVX, > 100 µM (inactive); in the assay on SNB-19 it was > 100 µM (inactive); in the assay on MDA-N, > 100 µM (inactive); in the assay on CCRF-CEM, > 100 µM (inactive). Further, the GI50 with SK-MEL-28, in the assay on HCT-116, in the assay on 786-0, with OVCAR-3, with A549 and in the assay on SR was > 100 µM (inactive) throughout. For the same molecule, the GI50 in the assay with COLO 205 is > 100 µM (inactive).
With `CCOc1ccncc1[N+](=O)[O-]`, the GI50 with A498, in the assay with BT-549, with SNB-75, in the assay with PC-3, in the assay with U-251 and in the assay with SF-295 was > 100 µM (inactive) throughout. Besides, the GI50 in the assay on CAKI-1, in the assay on Hs-578T, with EKVX, with SNB-19, in the assay on MDA-N and in the assay with CCRF-CEM was > 100 µM (inactive) throughout. Further, the GI50 with SK-MEL-28 was > 100 µM (inactive); in the assay with HCT-116, > 100 µM (inactive); in the assay on 786-0 it was > 100 µM (inactive); in the assay with A549, > 100 µM (inactive); with SR, > 100 µM (inactive); with COLO 205, > 10 µM (inactive).
Take `O=c1c2cc([N+](=O)[O-])cnc2sn1-c1ccc(Br)cc1`: the GI50 in the assay on BT-549 was 91.4 µM (inactive); in the assay with SNB-75, 73.5 µM (inactive); in the assay on PC-3, 33.7 µM (inactive); in the assay on U-251, 34.4 µM (inactive); with SF-295, 17.5 µM (inactive); in the assay with Hs-578T, 23.7 µM (inactive). Also, the GI50 in the assay on EKVX was 42.5 µM (inactive); in the assay on SNB-19, 38.8 µM (inactive); in the assay on MDA-N it was > 100 µM (inactive); in the assay with HOP-92, 23.8 µM (inactive); in the assay on CCRF-CEM, 22.9 µM (inactive); in the assay with SK-MEL-28 it was > 100 µM (inactive). For the same molecule, the GI50 was 19.5 µM (inactive) in the assay on HCT-116; 30.5 µM (inactive) in the assay on 786-0; 22.4 µM (inactive) in the assay with OVCAR-3; 42.3 µM (inactive) in the assay on A549; 21.8 µM (inactive) in the assay on SR; 47.2 µM (inactive) in the assay on COLO 205.
Turning to `CN(C)/C=C(\C(=O)c1ccccc1)n1nc(-c2ccccc2)cc1-c1ccccc1`, the GI50 in the assay on A498, in the assay on BT-549, in the assay on PC-3, in the assay on U-251, with SF-295 and in the assay with CAKI-1 was > 10 µM (inactive) throughout. Also, the GI50 in the assay on Hs-578T is > 10 µM (inactive); with EKVX, > 10 µM (inactive); in the assay on SNB-19, > 10 µM (inactive); with MDA-N, > 10 µM (inactive); in the assay on HOP-92, 7.38 µM (inactive); in the assay with CCRF-CEM, > 10 µM (inactive). Moreover, the GI50 in the assay with SK-MEL-28, in the assay with HCT-116, in the assay on 786-0, with OVCAR-3, in the assay on A549 and with SR was > 10 µM (inactive) in each case. The GI50 in the assay with COLO 205 was > 10 µM (inactive).
With `Cc1c2ccccc2c(C)n2c1nc1cc3ccccc3cc12`, the GI50 with BT-549 was 1.84 µM (inactive); in the assay with SNB-75 it was 1.57 µM (inactive); in the assay with PC-3 it was 1.27 µM (inactive); in the assay on U-251 it was 1.65 µM (inactive); in the assay with SF-295, 1.06 µM (active); with CAKI-1, 1.24 µM (inactive). In addition, the GI50 in the assay on Hs-578T was 1.25 µM (inactive); in the assay with EKVX, 1.64 µM (inactive); with SNB-19, 1.54 µM (inactive); with MDA-N, 1.47 µM (inactive); in the assay on HOP-92 it was 0.00215 µM (active); in the assay with CCRF-CEM, 1.57 µM (inactive). Besides, the GI50 with SK-MEL-28 is 1.46 µM (inactive); with HCT-116, 1.37 µM (inactive); with 786-0, 0.955 µM (active); in the assay on OVCAR-3, 0.968 µM (active); with A549 it was 1.86 µM (inactive); with SR, 0.721 µM (active). Further, the GI50 with COLO 205 was 1.34 µM (inactive).
